Where a SMILES comes first, the peptide text is derived from it. [ ]: non-standard residue; d: D form. dPhe(4-Cl) = N[C@H](Cc1ccc(Cl)cc1)C(=O)O; d2Nal = N[C@H](Cc1ccc2ccccc2c1)C(=O)O; dCit = NC(=O)NCCC[C@@H](N)C(=O)O; d3Pal = N[C@H](Cc1cccnc1)C(=O)O
Tested on: edema of the face and extremities
Assay: edematogenic test of Schmidt, et al.
Format: in vivo, rat
Conditions: 1.5 mg/kg s.c. once a day on two consecutive days
Protocol: In the edematogenic test of Schmidt, et al. (Contraception, 29, 283-289, 1984), however, a marked difference can be found between the control peptides and the peptides of the present invention. The control […] 1.50 mg/kg. No such reaction can be observed with the peptides of the present invention when given at a subcutaneous dose of 1.5 mg/kg.
In the tests as run, the rats were assigned to three groups of […] per group per compound tested. Comparison was made with a known prior art compound designated ORG 30276 namely (N-Ac-D-p-Cl-Phe^1,2,D-Trp^3,D-Arg^6,D-Ala^10)-LHRH. The groups were injected subcuntaneously once a day on two consecutive days with the LHRH antagonists at a dose level of 1.5 mg/kg. One control group was injected with diluent only. The rats were observed during five hours each day. Reactions of the rats were classified as follows: NR no apparent reaction, PR partial responders: edema of the nasal and paranasal area, FR full responders: facial edema with edematous extremities.

CC(=O)N[C@H](Cc1ccc2ccccc2c1)C(=O)N[C@H](Cc1ccc(Cl)cc1)C(=O)N[C@H](Cc1cccnc1)C(=O)N[C@@H](CO)C(=O)N[C@@H](Cc1ccc(O)cc1)C(=O)N[C@H](CCCNC(N)=O)C(=O)N[C@@H](CC(C)C)C(=O)N[C@@H](CCCNC(=N)N)C(=O)N1CCC[C@H]1C(=O)N[C@H](C)C(N)=O [EX XXVI, Ac-D-Nal-D-Phe(4-Cl)-D-Pal(3)-Ser-Tyr-D-Cit-Leu-Arg-Pro-D-AlaNH2] (Ac-[d2Nal][dPhe(4-Cl)][d3Pal]SY[dCit]LRP[dA]-NH2)
8: 1st Day NR (number of rats, no apparent reaction) (observed five hours each day) | 2nd Day NR (number of rats, no apparent reaction) (observed five hours each day)
0: 2nd Day PR (number of rats, partial responders: edema of the nasal and paranasal area) (* = very light edema of the face) | 1st Day FR (number of rats, full responders: facial edema with edematous extremities) (observed five hours each day) | 1st Day PR (number of rats, partial responders: edema of the nasal and paranasal area) (observed five hours each day) | 2nd Day FR (number of rats, full responders: facial edema with edematous extremities) (observed five hours each day)

Source: patent US5198533A, “LHRH antagonists” (The Administrators of the Tulane Educational Fund, priority 1988, dated 1993)
